Experimental findings from paper PMC5402304, “Oxoaporphine Metal Complexes (Co^II, Ni^II, Zn^II) with High Antitumor Activity by Inducing Mitochondria-Mediated Apoptosis and S-phase Arrest in HepG2” (Scientific Reports, 2017) are described below.

In one data set the test system is MGC80-3. Kind of data set: MTT cytotoxicity assay, MGC80-3. The data set is classed as cell-based, human. The protocol:
(§1) The in vitro cytotoxicity of OD, 1–3 and the corresponding metal salts were determined by MTT assay towards a panel of human tumor cells including HepG2, T-24, BEL-7404, MGC80-3, SK-OV-3/DDP and normal HL-7702 cells. As the positive control, cisplatin was dissolved at a concentration of 1 mM in 0.154 M NaCl[32].
(§2) The human tumor cell lines (BEL-7404, HepG2, MGC80–3, T-24, SK-OV-3/DDP and HeLa cells) and the human normal liver cell line HL-7702 were obtained from Shanghai Cell Bank in Chinese Academy of Sciences. Cells were cultured in Dulbecco’s modified Eagle’s medium (DMEM) or RPMI-1640 medium, which supplemented with 10% fetal bovine serum (FBS) and 100 U/mL penicillin and streptomycin. Cells were cultured at 37 °C in a humidified atmosphere with 5% CO2/95% air. Tested compounds (2.0 mM) were prepared as DMSO stock solution before they were diluted to working concentrations by PBS buffer (containing 0.5% DMSO), while cisplatin dissolved in 0.9% sodium chloride solution was used as positive controls.
(§3) Cells in their logarithmic phase were seeded in 96-well plates with 5.5 × 10^3/180 μL per well for 24 h. Then 20 μL of compounds at various concentrations were added to each well to achieve final concentrations of 1.25, 2.5, 5.0, 10.0, and 20.0 μM. All the cells were incubated with test compounds for another 48 h before MTT assay. Control wells contained media with 0.5% DMSO. After 48 h of cultivation, 10 μL of MTT (5 mg/mL in PBS) was added to each well, and cells were incubated at 37 °C for 6 h. The contents in the wells were pipetted out carefully, and the formazan crystals formed were dissolved in 100 μL of DMSO, and the absorbance was measured by enzyme labeling instrument with 490 nm/630 nm double wavelength measurement. The IC50 value was defined as a drug concentration killing 50% cells in comparison with untreated controls, which was calculated by the Bliss method (n = 5). All tests were repeated in at least three independent trials.
On the technique in general: Tetrazolium dyes change colour on reduction, which living cells bring about.

For the next data set, the system named is HepG2. Kind of data set: MTT cytotoxicity assay, HepG2. The data set is classed as cell-based, human. The protocol: as §1, §2, §3
The subject of a further data set is T-24. Kind of data set: MTT cytotoxicity assay, T-24. The format is cell-based, human. The protocol:
as §1, §2, §3

A further data set relates to BEL-7404. The data set is described as follows: MTT cytotoxicity assay, BEL-7404. The data set is classed as cell-based, human. On the procedure: as §1, §2, §3
The next data set has as its system SK-OV-3/DDP. The data set is described as follows: MTT cytotoxicity assay, SK-OV-3/DDP. The data set is classed as cell-based, human. The conditions noted are these: 48 h. The protocol: as §1, §2, §3
Another data set relates to HL-7702. The data set is described as follows: MTT cytotoxicity assay, normal liver cells HL-7702. The format is cell-based, human. Particulars: 48 h. The protocol: as §1, §2, §3
In another data set the test system is caspase-8. The data set is described as follows: Caspase-8 activation by flow cytometry (CaspGLOW). Particulars: HepG2, 1.0 μM, 24 h; control 1.8%. The data set is classed as cell-based, human. On the procedure:
(§4) Caspase family is closely related to the cell apoptosis via the mitochondrial pathway, especially caspases-3, -8 and -9. To better understand the antitumor mechanisms, it needs to confirm whether caspase-3, -8 and -9 are activated when the tumor cells are treated with 1–3.
(§5) The measurement of caspase-3, -8 and -9’s activities was performed by CaspGLOW fluorescein active caspase-3, -8 and -9 staining kit. HepG2 cells were treated with 1 μM 1–3 for 24 h, harvested at a density of 1 × 10^6 cells/mL, and then suspended in 300 μL volume with PBS. To the suspension, 1 μL of caspase-3 inhibitor (FITC-DEVD-FMK), caspase-8 inhibitor (FITC-IETD-FMK) or caspase-9 inhibitor (FITC-LEHD-FMK) was consequently added and incubated for 1 h at 37 °C in 5% CO2 incubator. The cells were then examined by a FACSAria II flow cytometer equipped with a 488 nm argon laser. The results were represented as the percent change on the activity compared with the control.

Another data set concerns caspase-9. Kind of data set: Caspase-9 activation by flow cytometry (CaspGLOW). The data set is classed as cell-based, human. The conditions noted are these: HepG2, 1.0 μM, 24 h; control 1.9%. The protocol:
as §4, §5
In general terms: In flow cytometry, cells or beads pass a laser one at a time.

Data set [1] in a line: Body weight of mice in the HepG2 xenograft model. The data set is classed as in vivo, BALB/c nude mice. The conditions noted are these: 3.0 and 6.0 mg/kg ip daily, versus solvent control group. On the procedure:
To further evaluate the in vivo antitumor efficacy of these complexes, 3 was selected to inhibit tumor growth in a HepG2 xenografts model. The mice were randomized into control group, 3-treated groups and positive control group (n = 6). Once the tumor had grown to an average volume of about 100 mm^3, two group of nude mice were injected intraperitoneally (ip) of 3 at a high dose (6.0 mg/kg) and a low (3.0 mg/kg) dose daily for 20 days, respectively. Cisplatin was used as positive control injected at 2.0 mg/kg every two days, while control group received solvents only.
BALB/c nude mice (male, 17–20 g, 5–6 weeks old) were supplied by Guangxi Medical University Laboratory Animal Centre (Guangxi, China, approval no. SCXK 2014–0002 and SYXK 2014–0003). All of the experimental procedures were carried out according to the NIH Guidelines for the Care and Use of Laboratory Animals. Animal experiments were approved by the Animal Care and Use Committee of Guangxi Medical University. Animal were housed at IVC system (individual ventilated caging) with conditions of constant photoperiod (12 h light/12 h dark at 25−28 °C and 45−65% humidity). The xenograft tumor model was established in the same way as we reported before. […]
The tumor volumes and body weight were measured every 3 days, and tumor size was calculated as volume = (w^2l)/2, where w is the width and l is the length in mm of tumor[70]. […]

As to [Zn(OD)2(H2O)2] (ClO4)2 [Complex 3], the inhibitive ratio in the data set on MGC80-3 (MGC80-3, 20 μmol/L, 48 h) was 67.30±0.21%; with HepG2 (HepG2, 20 μmol/L, 48 h), 89.58±1.22%; with T-24 (T-24, 20 μmol/L, 48 h), 84.16±0.76%; in the data set on BEL-7404 (BEL-7404, 20 μmol/L, 48 h), 61.00±0.19%; with SK-OV-3/DDP (SKOV-3/DDP, 20 μmol/L), 70.80±1.69%; in the data set on HL-7702 (HL-7702, 20 μmol/L), 59.26±0.15%. Moreover, the half-maximal inhibitory concentration (IC50) with MGC80-3 (MGC80-3, 48 h, MTT) worked out at 4310 ± 310 nM; with HepG2 (HepG2, 48 h, MTT), 390 ± 30 nM; in the data set on T-24 (T-24, 48 h, MTT), 510 ± 170 nM; with BEL-7404 (BEL-7404, 48 h, MTT), 12600 ± 450 nM; with SK-OV-3/DDP (SK-OV-3/DDP, MTT) it was 570 ± 70 nM; with HL-7702 (HL-7702 normal liver cells, MTT), 7130 ± 460 nM. Moreover, the “proportion of activated caspase-8” value in the data set on caspase-8 is 41.5%. Moreover, the “proportion of activated caspase-9” value in the data set with caspase-9 amounted to 32.6%. Moreover, in data set [1], the “in vivo toxic effect (loss in body weight)” value is “no significant loss in body weight”.

A word on the IC50: it is the concentration that inhibits the measured activity by half.
